We go through 47 compounds from US9051342B2 (priority 2004, dated 2015).

Broadly, the melting point is the temperature, or range, at which the solid turns liquid. As to `O=C(O)c1ccc(-n2cc(-c3cccc(F)c3)cn2)cc1` [Compound 212, 4-[4-(3-Fluoro-phenyl)-pyrazol-1-yl]-benzoic acid], the melting point fell in the range of 261 to 265 °C.

The compound `O=C(O)c1cccc(-n2cc(-c3cccc(F)c3)cn2)c1` [Compound 213, 3-[4-(3-Fluoro-phenyl)-pyrazol-1-yl]-benzoic acid] gave a melting point of 228 to 230 °C.

`O=C(O)c1ccc(-n2cc(-c3cccc(OC(F)F)c3)cn2)cc1` [Compound 214] had a melting point of 220 to 222 °C.

Regarding `O=C(O)c1ccc(-n2cc(-c3cccc(Oc4ccccc4)c3)cn2)cc1` [Compound 215, 4-[4-(3-Phenoxy-phenyl)-pyrazol-1-yl]-benzoic acid], the melting point lay within 211 to 213 °C.

`O=C(O)c1cccc(-n2cc(-c3cccc(Oc4ccccc4)c3)cn2)c1` [Compound 216, 3-[4-(3-Phenoxy-phenyl)-pyrazol-1-yl]-benzoic acid] had a melting point of 164 to 165 °C.

For `COc1ccc(-n2ccc(-c3ccc(C(=O)O)cc3)n2)cc1` [Compound 217, 4-[1-(4-Methoxy-phenyl)-1H-pyrazol-3-yl]-benzoic acid], the melting point lay within 252 to 253 °C.

In the case of `O=C(O)c1ccc(-c2ccn(-c3ccc(OC(F)(F)F)cc3)n2)cc1` [Compound 218, 4-[1-(4-Trifluoromethoxy-phenyl)-1H-pyrazol-3-yl]-benzoic acid], the melting point fell in the range of 214 to 215 °C.

Regarding `COc1ccc(-c2ccn(-c3ccc(C(=O)O)cc3)n2)cc1` [Compound 219, 4-[3-(4-Methoxy-phenyl)-pyrazol-1-yl]-benzoic acid], the melting point was in the range of 268 to 270 °C.

Turning to `COc1cccc(-c2ccn(-c3cccc(C(=O)O)c3)n2)c1` [Compound 220, 3-[3-(3-Methoxy-phenyl)-pyrazol-1-yl]-benzoic acid], the melting point fell in the range of 179 to 180 °C.

Consider `COc1cccc(-c2ccn(-c3ccc(C(=O)O)cc3)n2)c1` [Compound 221, 4-[3-(3-Methoxy-phenyl)-pyrazol-1-yl]-benzoic acid], for which the melting point was in the range of 200 to 202 °C.

In the case of `O=C(O)c1ccc(-n2ccc(-c3ccccc3)n2)cc1` [Compound 222, 4-(3-Phenyl-pyrazol-1-yl)-benzoic acid], the melting point was 244 to 245 °C.

`O=C(O)c1cccc(-c2cnn(-c3cccc(OC(F)(F)F)c3)c2)c1` [Compound 223, 3-[1-(3-Trifluoromethoxy-phenyl)-1H-pyrazol-4-yl]-benzoic acid]: the melting point lay in the range of 143 to 145 °C.

`O=C(O)c1ccc(-c2cnn(-c3cccc(OC(F)(F)F)c3)c2)cc1` [Compound 224, 4-[1-(3-Trifluoromethoxy-phenyl)-1H-pyrazol-4-yl]-benzoic acid] registered a melting point of 230 to 231 °C.

The compound `O=C(O)c1cccc(-c2cnn(-c3ccc4c(c3)OCCO4)c2)c1` [Compound 225, 3-[1-(2,3-Dihydro-benzo[1,4]dioxin-6-yl)-1H-pyrazol-4-yl]-benzoic acid] gave a melting point of 201 to 203 °C.

The compound `O=C(O)c1ccc(-c2cnn(-c3ccc4c(c3)OCCO4)c2)cc1` [Compound 226, 4-[1-(2,3-Dihydro-benzo[1,4]dioxin-6-yl)-1H-pyrazol-4-yl]-benzoic acid] gave a melting point of 238 to 240 °C.

`O=C(O)c1ccc(-c2cnn(-c3ccc4c(c3)OCO4)c2)cc1` [Compound 227, 4-(1-Benzo[1,3]dioxol-5-yl-1H-pyrazol-4-yl)-benzoic acid] displayed a melting point of 266 to 268 °C.

Turning to `CC(C)c1ccc(-n2cc(-c3cccc(C(=O)O)c3)cn2)cc1` [Compound 228, 3-[1-(4-Isopropyl-phenyl)-1H-pyrazol-4-yl]-benzoic acid], the melting point was in the range of 212 to 215 °C.

For `CC(C)c1ccc(-n2cc(-c3ccc(C(=O)O)cc3)cn2)cc1` [Compound 229, 4-[1-(4-Isopropyl-phenyl)-1H-pyrazol-4-yl]-benzoic acid], the melting point is 215 to 218 °C.

`Cc1ccc(-n2cc(-c3cccc(C(=O)O)c3)cn2)cc1Cl` [Compound 230, 3-[1-(3-Chloro-4-methyl-phenyl)-1H-pyrazol-4-yl]-benzoic acid] gave a melting point of 209 to 211 °C.

`Cc1ccc(-n2cc(-c3ccc(C(=O)O)cc3)cn2)cc1Cl` [Compound 231, 4-[1-(3-Chloro-4-methyl-phenyl)-1H-pyrazol-4-yl]-benzoic acid] gave a melting point of 285 to 288 °C.

On to `O=C(O)c1cccc(-c2cnn(-c3ccc(Cl)c(Cl)c3)c2)c1` [Compound 232, 3-[1-(3,4-Dichloro-phenyl)-1H-pyrazol-4-yl]-benzoic acid], for which the melting point is 135 to 138 °C.

Consider `O=C(O)c1ccc(-c2cnn(-c3ccc(Cl)c(Cl)c3)c2)cc1` [Compound 233, 4-[1-(3,4-Dichloro-phenyl)-1H-pyrazol-4-yl]-benzoic acid], for which the melting point was in the range of 286 to 289 °C.

As for `O=C(O)c1ccc(-c2cnn(-c3ccc(Cl)cc3)c2)cc1` [Compound 234, 4-[1-(4-Chloro-phenyl)-1H-pyrazol-4-yl]-benzoic acid], the melting point was in the range of 259 to 261 °C.

`O=C(O)c1cccc(-c2cnn(-c3ccc(C(F)(F)F)cc3)c2)c1` [Compound 235, 3-[1-(4-Trifluoromethyl-phenyl)-1H-pyrazol-4-yl]-benzoic acid]: the melting point was in the range of 218 to 220 °C.

Take `O=C(O)c1ccc(-c2cnn(-c3ccc(C(F)(F)F)cc3)c2)cc1` [Compound 236, 4-[1-(4-Trifluoromethyl-phenyl)-1H-pyrazol-4-yl]-benzoic acid]: the melting point lay within 271 to 273 °C.

Compound `Cc1ccc(-n2cc(-c3ccc(C(=O)O)cc3)cn2)cc1C` [Compound 238, 4-[1-(3,4-Dimethyl-phenyl)-1H-pyrazol-4-yl]-benzoic acid] displayed a melting point of 254 to 256 °C.

`O=C(O)c1cccc(-c2cnn(-c3ccc4c(c3)OCO4)c2)c1` [Compound 239, 3-(1-Benzo[1,3]dioxol-5-yl-1H-pyrazol-4-yl)-benzoic acid] returned a melting point of 221 to 223 °C.

On to `Cc1ccccc1-n1ccc(-c2cccc(C(=O)O)c2)c1` [Compound 240, 3-(1-o-Tolyl-1H-pyrrol-3-yl)-benzoic acid], for which the melting point fell in the range of 161 to 163 °C.

Consider `Cc1ccc(-n2ccc(-c3cccc(C(=O)O)c3)c2)cc1F` [Compound 241, 3-[1-(3-Fluoro-4-methyl-phenyl)-1H-pyrrol-3-yl]-benzoic acid], for which the melting point fell in the range of 205 to 208 °C.

Consider `O=C(O)c1cccc(-c2ccn(-c3cc(F)ccc3F)c2)c1` [Compound 242, 3-[1-(2,5-Difluoro-phenyl)-1H-pyrrol-3-yl]-benzoic acid], for which the melting point was 193 to 194 °C.

On to `O=C(O)c1ccc(-c2ccn(-c3cccc(Cl)c3)c2)cc1` [Compound 243, 4-[1-(3-Chloro-phenyl)-1H-pyrrol-3-yl]-benzoic acid], for which the melting point was in the range of 199 to 201 °C.

`Cc1ccc(-n2ccc(-c3ccc(C(=O)O)cc3)c2)cc1F` [Compound 244, 4-[1-(3-Fluoro-4-methyl-phenyl)-1H-pyrrol-3-yl]-benzoic acid] gave a melting point of 264 to 268 °C.

Consider `O=C(O)c1ccc(-c2ccn(-c3cc(F)ccc3F)c2)cc1` [Compound 245, 4-[1-(2,5-Difluoro-phenyl)-1H-pyrrol-3-yl]-benzoic acid], for which the melting point lay within 215 to 218 °C.

As for `O=C(O)c1cccc(-c2ccn(-c3cccc(OCc4ccccc4)c3)c2)c1` [Compound 246, 3-[1-(3-Benzyloxy-phenyl)-1H-pyrrol-3-yl]-benzoic acid], the melting point lay within 142 to 144 °C.

Turning to `O=C(O)c1cccc(-c2ccn(-c3ccc4c(c3)OCO4)c2)c1` [Compound 247, 3-(1-Benzo[1,3]dioxol-5-yl-1H-pyrrol-3-yl)-benzoic acid], the melting point was in the range of 177 to 180 °C.

Regarding `COc1ccc2c(c1)-c1cn(-c3cccc(C(=O)O)c3)nc1CC2` [Compound 253, 3-(8-Methoxy-4,5-dihydro-benzo[e]indazol-2-yl)-benzoic acid], the melting point lay within 239 to 241 °C.

In turn, `COc1ccc2c(c1)-c1cnn(-c3cccc(C(=O)O)c3)c1CC2` [Compound 254, 3-(8-Methoxy-4,5-dihydro-benzo[e]indazol-3-yl)-benzoic acid] had a melting point of 269 to 271 °C.

In turn, `CC(=O)c1ccc(-n2ccc(-c3cccc(C(=O)O)c3)n2)cc1` [Compound 255, 3-[1-(4-Acetyl-phenyl)-1H-pyrazol-3-yl]-benzoic acid] returned a melting point of 215 to 216 °C.

The compound `CC(=O)c1ccc(-n2ccc(-c3ccc(C(=O)O)cc3)n2)cc1` [Compound 256, 4-[1-(4-Acetyl-phenyl)-1H-pyrazol-3-yl]-benzoic acid] had a melting point of 278 to 279 °C.

With `O=C(O)c1ccc(-c2ccn(-c3ccc4[nH]ccc4c3)n2)cc1` [Compound 257, 4-[1-(1H-Indol-5-yl)-1H-pyrazol-3-yl]-benzoic acid], the melting point is 281 to 282 °C.

On to `O=C(O)c1cccc(-c2ccn(-c3cccs3)n2)c1` [Compound 258, 3-(1-Thiophen-2-yl-1H-pyrazol-3-yl)-benzoic acid], for which the melting point lay in the range of 198 to 199 °C.

Compound `O=C(O)c1ccc(-c2ccn(-c3cccs3)n2)cc1` [Compound 259, 4-(1-Thiophen-2-yl-1H-pyrazol-3-yl)-benzoic acid] showed a melting point of 200 to 202 °C.

Turning to `O=C(O)c1cccc(-c2ccn(-c3cccnc3)n2)c1` [Compound 260, 3-(1-Pyridin-3-yl-1H-pyrazol-3-yl)-benzoic acid], the melting point was in the range of 235 to 236 °C.

In turn, `O=C(O)c1ccc(-c2ccn(-c3cccnc3)n2)cc1` [Compound 261, 4-(1-Pyridin-3-yl-1H-pyrazol-3-yl)-benzoic acid] returned a melting point of 280 to 282 °C.

For the compound `O=C(O)c1cccc(-n2cnc(-c3ccccc3)c2)c1` [Compound 262, 3-(4-Phenyl-imidazol-1-yl)-benzoic acid], the melting point is 277 to 279 °C.

For `O=C(O)c1ccc(-n2cnc(-c3ccccc3)c2)cc1` [Compound 263, 4-(4-Phenyl-imidazol-1-yl)-benzoic acid], the melting point was 263 to 265 °C.

`O=C(O)c1ccc(-n2cc(-c3ccccc3F)nn2)cc1` [Compound 264, 4-[4-(2-Fluoro-phenyl)-[1,2,3]triazol-1-yl]-benzoic acid] had a melting point of 292 to 294 °C.
